# Test results published in publication PMC9115112, “A2B adenosine receptor antagonists rescue lymphocyte activity in adenosine-producing patient-derived cancer models” (Journal for Immunotherapy of Cancer, 2022).
# pKi: −log10 of the molar value.
# Biological target: T1, human A2AAR (Homo sapiens, UniProt P29274)
# T1 construct: expressed in transfected cells; host or cells: HeLa
# Assay: Radioligand binding, human A2AAR ([3H]ZM241385, transfected HeLa cells)
# Details: displacement of [3H]ZM241385, human HeLa cells, n=3, racemic mixtures; read-out: Ki hA2A
# Experimental: The affinity and selectivity profiles of the ligands obtained was studied in vitro, radioligand binding assays, at the four human specific ARs subtypes, using experimental protocols previously described.[28–30] All ligands were prepared and tested as racemic mixtures. […] Non-specific binding was determined in the presence of R-PIA 10 µM for A1AR, NECA 50 µM for A2AAR, NECA 400 μΜ for A2BAR and R-PIA 100 μΜ for A3AR.
# T1 sequence (P29274 whole entry): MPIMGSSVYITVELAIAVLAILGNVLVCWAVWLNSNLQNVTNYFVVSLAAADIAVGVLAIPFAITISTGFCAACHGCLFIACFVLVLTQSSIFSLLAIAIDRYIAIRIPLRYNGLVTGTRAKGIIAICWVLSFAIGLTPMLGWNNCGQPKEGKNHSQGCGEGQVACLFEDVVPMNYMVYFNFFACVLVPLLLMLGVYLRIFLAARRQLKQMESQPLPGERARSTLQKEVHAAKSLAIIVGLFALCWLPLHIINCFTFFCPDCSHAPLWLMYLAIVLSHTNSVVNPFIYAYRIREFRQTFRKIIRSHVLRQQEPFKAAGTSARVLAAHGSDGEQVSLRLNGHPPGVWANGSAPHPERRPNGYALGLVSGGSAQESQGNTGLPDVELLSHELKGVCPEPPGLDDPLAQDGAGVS
compound,measurement,value
CC1=C(C(=O)OC(C)C)C(c2ccco2)n2c(nc3ccccc32)N1Cc1ccccc1F (stereo not shown) [ISAM-R56A],pKi,< 6.00
